# Test system: pre-menopausal women
# Experiment: uterine bleeding pattern, clinical trial of compound (VI) 200 mg per day (choline salt) with add-back therapy (1.0 mg E2, 0.5 mg norethindrone acetate)
# Assay type: in vivo, human
# Method: The experiments described in this example were conducted as part of a single-center, open-label, randomized, parallel-group clinical trial in 32 pre-menopausal women. Following screening assessments, and during the second half of the menstrual cycle, women received norethindrone (5 mg, three-times daily for 10 days) to synchronize menstrual cycles. After menstrual cycle synchronization, subjects were randomized with a 1:1 ratio to one of two treatment arms: (i) a cohort receiving once-daily administration of compound (VI) (200 mg per day, administered in the form of a choline salt) with concurrent onset of add-back therapy administration for 10 weeks (“Concurrent-ABT”), or (ii) a cohort receiving pre-treatment with compound (VI) (200 mg per day, administered in the form of a choline salt) for 4 weeks followed by combined daily administration of compound (VI) and add-back therapy (“Delayed-ABT”). The add-back therapy used in these experiments contained 1.0 mg of E2 and 0.5 mg of norethindrone acetate, and was administered to subjects once daily.
# The main treatment outcomes and endpoints measured during these experiments included (i) a qualitative assessment of uterine blood loss, which was recorded on a daily basis throughout the study by characterizing each subject's bleeding pattern using one of the following four categories: “no bleeding,” “spotting” (light staining, dark blood, no sanitary protection needed or only panty liner), “bleeding” (1-4 completely soiled maxi sanitary towels or 1-8 soiled tampons or equivalent combination of the two), or “heavy bleeding” (>4 completely soiled maxi sanitary towels or >8 soiled tampons or equivalent combination of the two); (ii) a bi-weekly assessment of each subject's circulating E2 concentration; (iii) a bi-weekly assessment of each subject's circulating progesterone concentration (measured using a validated commercial chemiluminescence immunoassay method (Elecsys Progesterone III, Roche, Burgess Hill, UK)); (iv) the pharmacokinetic profile of compound (VI) and the add-back therapy; and (v) adverse events.
# [1] = Concurrent-ABT group, first half of treatment
# [2] = Concurrent-ABT group, second half of the treatment period
# [3] = Days 1-14, treatment A (Concurrent-ABT), N=16
# [4] = Days 1-14, treatment B (Delayed-ABT), N=16
# [5] = Days 15-28, Overall (A+B), N=32
# [6] = Days 15-28, treatment A (Concurrent-ABT), N=16
# [7] = Days 15-28, treatment B (Delayed-ABT), N=16
# [8] = Days 29-42, Overall (A+B), N=29
# [9] = Days 29-42, treatment A (Concurrent-ABT), N=14
smiles,measurement,setting,value
"COc1cc(F)c(-n2c(=O)[nH]c3csc(C(=O)O)c3c2=O)cc1OCc1c(OC)ccc(F)c1F [Compound (VI), 3-[2-fluoro-5-(2,3-difluoro-6-methoxybenzyloxy)4-methoxyphenyl]-2,4-dioxo-1,2,3,4-tetrahydrothieno [3,4d]pyrimidine-5-carboxylic acid]",women who had reached amenorrhea within 5 days of treatment,Concurrent-ABT group,~40%
same,"bleeding, frequency",[1],≤ 4%
same,"spotting, frequency",[1],≤ 10%
same,women in complete amenorrhea (no bleeding),"Concurrent-ABT group, last 4 weeks of treatment",~80%
same,"amenorrhea, frequency",[2],up to 98%
same,"bleeding, frequency",[2],less than 3%
same,"spotting, frequency",[2],1-5%
same,Uterine Bleeding Pattern,"Concurrent-ABT, Weeks 2-4",Spotting and bleeding generally decreased over time
same,Uterine Bleeding Pattern: Bleeding,"Concurrent-ABT, Weeks 2-4",Bleeding: ≤4%
same,Uterine Bleeding Pattern: Spotting,"Concurrent-ABT, Weeks 2-4",Spotting: ≤8%
same,Uterine Bleeding Pattern: Bleeding,"Concurrent-ABT, Weeks 7-10",Bleeding: ≤2%
same,Uterine Bleeding Pattern: Spotting,"Concurrent-ABT, Weeks 7-10",Spotting: 1-5%
same,Uterine Bleeding Pattern: amenorrhea,"Concurrent-ABT, Weeks 7-10",Amenorrhea: Up to 98%
same,"No Bleeding or Spotting, subjects (%), Plasma Estradiol Level 20-50 pg/mL","Days 1-14, Overall (A+B), N=32",(9.4%)
same,"No Bleeding or Spotting, subjects (%), Plasma Estradiol Level <20 pg/mL","Days 1-14, Overall (A+B), N=32",(15.6%)
same,"No Bleeding or Spotting, subjects (%), Plasma Estradiol Level >50 pg/mL","Days 1-14, Overall (A+B), N=32",(3.1%)
same,"No Bleeding or Spotting, subjects (n), Plasma Estradiol Level 20-50 pg/mL","Days 1-14, Overall (A+B), N=32",3
same,"No Bleeding or Spotting, subjects (n), Plasma Estradiol Level <20 pg/mL","Days 1-14, Overall (A+B), N=32",5
same,"No Bleeding or Spotting, subjects (n), Plasma Estradiol Level >50 pg/mL","Days 1-14, Overall (A+B), N=32",1
same,"No Bleeding, subjects (%), Plasma Estradiol Level 20-50 pg/mL","Days 1-14, Overall (A+B), N=32",(0.0%)
same,"No Bleeding, subjects (%), Plasma Estradiol Level <20 pg/mL","Days 1-14, Overall (A+B), N=32",(3.1%)
same,"No Bleeding, subjects (%), Plasma Estradiol Level >50 pg/mL","Days 1-14, Overall (A+B), N=32",(3.1%)
same,"No Bleeding, subjects (n), Plasma Estradiol Level 20-50 pg/mL","Days 1-14, Overall (A+B), N=32",0
same,"No Bleeding, subjects (n), Plasma Estradiol Level <20 pg/mL","Days 1-14, Overall (A+B), N=32",1
same,"No Bleeding, subjects (n), Plasma Estradiol Level >50 pg/mL","Days 1-14, Overall (A+B), N=32",1
same,"No Bleeding or Spotting, subjects (%), Plasma Estradiol Level 20-50 pg/mL",[3],(18.8%)
same,"No Bleeding or Spotting, subjects (%), Plasma Estradiol Level <20 pg/mL",[3],(0.0%)
same,"No Bleeding or Spotting, subjects (%), Plasma Estradiol Level >50 pg/mL",[3],(6.3%)
same,"No Bleeding or Spotting, subjects (n), Plasma Estradiol Level 20-50 pg/mL",[3],3
same,"No Bleeding or Spotting, subjects (n), Plasma Estradiol Level <20 pg/mL",[3],0
same,"No Bleeding or Spotting, subjects (n), Plasma Estradiol Level >50 pg/mL",[3],1
same,"No Bleeding, subjects (%), Plasma Estradiol Level 20-50 pg/mL",[3],(0.0%)
same,"No Bleeding, subjects (%), Plasma Estradiol Level <20 pg/mL",[3],(0.0%)
same,"No Bleeding, subjects (%), Plasma Estradiol Level >50 pg/mL",[3],(6.3%)
same,"No Bleeding, subjects (n), Plasma Estradiol Level 20-50 pg/mL",[3],0
same,"No Bleeding, subjects (n), Plasma Estradiol Level <20 pg/mL",[3],0
same,"No Bleeding, subjects (n), Plasma Estradiol Level >50 pg/mL",[3],1
same,"No Bleeding or Spotting, subjects (%), Plasma Estradiol Level 20-50 pg/mL",[4],(0.0%)
same,"No Bleeding or Spotting, subjects (%), Plasma Estradiol Level <20 pg/mL",[4],(31.3%)
same,"No Bleeding or Spotting, subjects (%), Plasma Estradiol Level >50 pg/mL",[4],(0.0%)
same,"No Bleeding or Spotting, subjects (n), Plasma Estradiol Level 20-50 pg/mL",[4],0
same,"No Bleeding or Spotting, subjects (n), Plasma Estradiol Level <20 pg/mL",[4],5
same,"No Bleeding or Spotting, subjects (n), Plasma Estradiol Level >50 pg/mL",[4],0
same,"No Bleeding, subjects (%), Plasma Estradiol Level 20-50 pg/mL",[4],(0.0%)
same,"No Bleeding, subjects (%), Plasma Estradiol Level <20 pg/mL",[4],(6.3%)
same,"No Bleeding, subjects (%), Plasma Estradiol Level >50 pg/mL",[4],(0.0%)
same,"No Bleeding, subjects (n), Plasma Estradiol Level 20-50 pg/mL",[4],0
same,"No Bleeding, subjects (n), Plasma Estradiol Level <20 pg/mL",[4],1
same,"No Bleeding, subjects (n), Plasma Estradiol Level >50 pg/mL",[4],0
same,"No Bleeding or Spotting, subjects (%), Plasma Estradiol Level 20-50 pg/mL",[5],(34.4%)
same,"No Bleeding or Spotting, subjects (%), Plasma Estradiol Level <20 pg/mL",[5],(53.1%)
same,"No Bleeding or Spotting, subjects (%), Plasma Estradiol Level >50 pg/mL",[5],(3.1%)
same,"No Bleeding or Spotting, subjects (n), Plasma Estradiol Level 20-50 pg/mL",[5],11
same,"No Bleeding or Spotting, subjects (n), Plasma Estradiol Level <20 pg/mL",[5],17
same,"No Bleeding or Spotting, subjects (n), Plasma Estradiol Level >50 pg/mL",[5],1
same,"No Bleeding, subjects (%), Plasma Estradiol Level 20-50 pg/mL",[5],(21.9%)
same,"No Bleeding, subjects (%), Plasma Estradiol Level <20 pg/mL",[5],(50.0%)
same,"No Bleeding, subjects (%), Plasma Estradiol Level >50 pg/mL",[5],(3.1%)
same,"No Bleeding, subjects (n), Plasma Estradiol Level 20-50 pg/mL",[5],7
same,"No Bleeding, subjects (n), Plasma Estradiol Level <20 pg/mL",[5],16
same,"No Bleeding, subjects (n), Plasma Estradiol Level >50 pg/mL",[5],1
same,"No Bleeding or Spotting, subjects (%), Plasma Estradiol Level 20-50 pg/mL",[6],(62.5%)
same,"No Bleeding or Spotting, subjects (%), Plasma Estradiol Level <20 pg/mL",[6],(12.5%)
same,"No Bleeding or Spotting, subjects (%), Plasma Estradiol Level >50 pg/mL",[6],(6.3%)
same,"No Bleeding or Spotting, subjects (n), Plasma Estradiol Level 20-50 pg/mL",[6],10
same,"No Bleeding or Spotting, subjects (n), Plasma Estradiol Level <20 pg/mL",[6],2
same,"No Bleeding or Spotting, subjects (n), Plasma Estradiol Level >50 pg/mL",[6],1
same,"No Bleeding, subjects (%), Plasma Estradiol Level 20-50 pg/mL",[6],(37.5%)
same,"No Bleeding, subjects (%), Plasma Estradiol Level <20 pg/mL",[6],(12.5%)
same,"No Bleeding, subjects (%), Plasma Estradiol Level >50 pg/mL",[6],(6.3%)
same,"No Bleeding, subjects (n), Plasma Estradiol Level 20-50 pg/mL",[6],6
same,"No Bleeding, subjects (n), Plasma Estradiol Level <20 pg/mL",[6],2
same,"No Bleeding, subjects (n), Plasma Estradiol Level >50 pg/mL",[6],1
same,"No Bleeding or Spotting, subjects (%), Plasma Estradiol Level 20-50 pg/mL",[7],(6.3%)
same,"No Bleeding or Spotting, subjects (%), Plasma Estradiol Level <20 pg/mL",[7],(93.8%)
same,"No Bleeding or Spotting, subjects (%), Plasma Estradiol Level >50 pg/mL",[7],(0.0%)
same,"No Bleeding or Spotting, subjects (n), Plasma Estradiol Level 20-50 pg/mL",[7],1
same,"No Bleeding or Spotting, subjects (n), Plasma Estradiol Level <20 pg/mL",[7],15
same,"No Bleeding or Spotting, subjects (n), Plasma Estradiol Level >50 pg/mL",[7],0
same,"No Bleeding, subjects (%), Plasma Estradiol Level 20-50 pg/mL",[7],(6.3%)
same,"No Bleeding, subjects (%), Plasma Estradiol Level <20 pg/mL",[7],(87.5%)
same,"No Bleeding, subjects (%), Plasma Estradiol Level >50 pg/mL",[7],(0.0%)
same,"No Bleeding, subjects (n), Plasma Estradiol Level 20-50 pg/mL",[7],1
same,"No Bleeding, subjects (n), Plasma Estradiol Level <20 pg/mL",[7],14
same,"No Bleeding, subjects (n), Plasma Estradiol Level >50 pg/mL",[7],0
same,"No Bleeding or Spotting, subjects (%), Plasma Estradiol Level 20-50 pg/mL",[8],(55.2%)
same,"No Bleeding or Spotting, subjects (%), Plasma Estradiol Level <20 pg/mL",[8],(13.8%)
same,"No Bleeding or Spotting, subjects (%), Plasma Estradiol Level >50 pg/mL",[8],(20.7%)
same,"No Bleeding or Spotting, subjects (n), Plasma Estradiol Level 20-50 pg/mL",[8],16
same,"No Bleeding or Spotting, subjects (n), Plasma Estradiol Level <20 pg/mL",[8],4
same,"No Bleeding or Spotting, subjects (n), Plasma Estradiol Level >50 pg/mL",[8],6
same,"No Bleeding, subjects (%), Plasma Estradiol Level 20-50 pg/mL",[8],(41.4%)
same,"No Bleeding, subjects (%), Plasma Estradiol Level <20 pg/mL",[8],(13.8%)
same,"No Bleeding, subjects (%), Plasma Estradiol Level >50 pg/mL",[8],(17.2%)
same,"No Bleeding, subjects (n), Plasma Estradiol Level 20-50 pg/mL",[8],12
same,"No Bleeding, subjects (n), Plasma Estradiol Level <20 pg/mL",[8],4
same,"No Bleeding, subjects (n), Plasma Estradiol Level >50 pg/mL",[8],5
same,"No Bleeding or Spotting, subjects (%), Plasma Estradiol Level 20-50 pg/mL",[9],(64.3%)
same,"No Bleeding or Spotting, subjects (%), Plasma Estradiol Level <20 pg/mL",[9],(7.1%)
same,"No Bleeding or Spotting, subjects (%), Plasma Estradiol Level >50 pg/mL",[9],(21.4%)

# — patent US20230067378A1, “COMPOSITIONS AND METHODS FOR THE TREATMENT OF ESTROGEN-DEPENDENT DISORDERS” (ObsEva S.A., priority 2018, published 2023)
